{"source": "patent US12396987B2", "about": "“Pharmaceutical composition with excellent storage stability” (ISHIHARA SANGYO KAISHA, LTD., priority 2018, dated 2025)", "key": {"[1]": {"settings": "clinical use as additive; cited from earlier work"}, "[2]": {"experiment": "Inhibition of decomposition of compound 1-containing liquid composition with antioxidant added (60° C., 48 hours)", "type": "physicochemical", "settings": "compound 1 250 μM, Tween 80 1.0 v/v %, antioxidant 250 μM, 60° C. for 48 hours (FIG. 6)", "method": "In this test, an additive (antioxidant) that traps reactive oxygen species (ROS) was added to investigate the usefulness in the aqueous solution of the compound 1 for inhibition of decomposition under thermal conditions. A compound 1, Tween 80 and an antioxidant was metered, and Milli-Q water was added so that the concentration of the compound 1 and Tween 80 became 250 μM and 1.0 v/v %, respectively. Subsequently, four antioxidants were added so that each of the concentration thereof became 250 μM to obtain a compound 1-containing liquid composition with an antioxidant added. The content of D1 after the composition was heated at 60° C. for 48 hours was evaluated."}, "[3]": {"tested_on": "phospholipase A2", "settings": "known from Patent Document 1; cited from earlier work"}, "[4]": {"experiment": "Solution stability of compound 1-containing liquid composition with VC added (heating to 60° C.)", "type": "physicochemical", "settings": "VC 250, 500 or 2,500 μM, compound 1 250 μM, Tween 80 1.0 v/v %", "method": "(§1) Measurement of the residual rate of the compound 1 and the content of the decomposition products in the following Examples 3 to 9 was performed under the following conditions: • Analyzer: HPLC-PDA system: CBM-20Avp system controller, SIC-20ADvp autosampler, LC-20ADvp feed pump, DGU-20A degasser, CTO-20Avp column oven, SPD-M10Avp photodiode array detector, manufactured by Shimadzu Corporation • Column: Kinetex® Biphenyl […] (50×4.6 mm), manufactured by Shimadzu Corporation\nEffects of the amount of VC added on the solution stability of the compound 1 were investigated. Preparation was performed in the same manner as for the compound 1-containing liquid composition in Example 8 except that the concentration of VC was 250, 500 or 2,500 μM. The decomposition of the compound 1 and the production of D1 at the time of addition were evaluated (mean±standard error, n=3). After heating to 60° C., and the residual rate of the compound 1 and the content of D1 were evaluated over time, and the results are shown in FIG. 7. The residual rate (% by mass) of the compound 1 in the solution and the content (% by area) of D1 were calculated by the same calculation method as in Examples 3 to 8."}, "[5]": {"experiment": "Forced decomposition test of compound 1 (heat, acid, base, oxidation, light; HPLC-PDA)", "type": "physicochemical", "method": "A forced decomposition test of the compound 1 was performed under stress conditions of heat, acid, base, oxidation and light. A compound 1-containing solution was stored under the conditions shown in Table 4 below, and then the concentrations of the compound 1 and the decomposition products in the solution were measured using a high performance liquid chromatography-photodiode array detector (HPLC-PDA system). An incubator was used for heating, and a light resistance tester was used for irradiation with pseudo-sunlight in a photodecomposition test. The content of the compound 1 in the compound 1-containing solution produced was measured by the HPLC-PDA system, and the value thereof was regarded as the initial content.\nThe content of D1 and D3 in the solution was represented by the proportion (% by area) of the peak area of each compound to the total peak area of HPLC analysis of the composition obtained after the decomposition test. Furthermore, the residual rate (% by mass) of the compound 1 was calculated by dividing the content after storage by the initial content using the absolute calibration method.\nas §1\nA compound 1 was metered, and Milli-Q water was added so that the compound 1 could be solubilized, thus obtaining an aqueous solution of the compound 1 (250 μM) so that the concentration of the compound 1 became 250 μM.\nThe aqueous solution of the compound 1 thus obtained (250 μM) was heated at 60° C., followed by measurement using the HPLC-PDA system.\nThe aqueous solution of the compound 1 obtained in Example 3 (250 μM) was heated under acid (0.1N HCl) conditions, followed by measurement of the decomposition products using the HPLC-PDA system. […] Addition of an acid decreased the production of D1 and promoted the production of D3.\nThe aqueous solution of the compound 1 obtained in Example 3 (250 μM) was heated under base (0.1N NaOH) conditions, followed by measurement of the decomposition products using the HPLC-PDA system. […] Addition of a base promoted the production of D1. Other peaks (0.11% by area) were observed.\nThe aqueous solution of the compound 1 obtained in Example 3 (250 μM) was stored under conditions of ordinary temperature and hydrogen peroxide (3 v/v %), followed by measurement of the decomposition products using the HPLC-PDA system.\nThe aqueous solution of the compound 1 obtained in Example 3 (250 μM) was irradiated with pseudo-sunlight (250 W/m^2, 2 hours), followed by measurement of the decomposition products using the HPLC-PDA system. […] Therefore, it was confirmed that the aqueous solution of the compound 1 was photostable."}, "[6]": {"experiment": "Pharmacokinetic evaluation of hydrogelated liquid composition, subcutaneous administration to rats", "type": "in vivo, SD male rats", "settings": "5 mg/kg", "method": "A compound 1 (3.5 mg), Kolliphor (registered trademark) P188 (200 mg), Kolliphor (registered trademark) P407 (150 mg) and purified water (1.0 mL) were mixed using a vortex mixer to obtain a liquid composition. Then, the above liquid composition was stored at 4° C. overnight to obtain a hydrogel.\nTo evaluate the sustained-release ability of the hydrogelated liquid composition prepared in the above Example 11(a), the drug concentration in blood was measured over time after subcutaneous administration of the hydrogel or a compound 1 bulk powder to rats. Specifically, the hydrogel or the compound 1 bulk powder, at a dose of 5 mg/kg as an amount of the compound 1, was singly subcutaneously administered to SD male rats. After subcutaneous administration, blood was collected over time from the tail vein, and the blood was transferred into a micro test tube treated with heparin, and immediately cooled in ice. After cooling in ice, the blood was immediately centrifuged at 4° C. and 10,000 g for 10 minutes.\nIn Table 10, pharmacokinetic parameter was expressed as mean±standard error (n=3 to 6)."}, "[7]": {"settings": "Heat: 60° C., 48 h, —: Undetected"}, "[8]": {"settings": "Oxidation: 3.0% H2O2, room temperature, 48 h"}}, "note": "“Also recorded” adds a separate entry of the source. Structures can show the parent of a compound that is named as a salt."}
{"compound": "N[C@@H](CS)C(=O)O", "note": "[cysteine, L-Cysteine]", "values": [{"measurement": "Maximum dose during intravenous injection", "setting": "[1]", "value": 8, "unit": "mg"}, {"measurement": "Inhibition of decomposition of compound 1 / production of D1 by added antioxidant", "setting": "[2]", "value": "remarkably inhibited the production of D1"}]}
{"compound": "CCS(=O)(=O)Nc1ncc(C(F)(F)F)cc1NC(=O)C1CCCCC1", "note": "[N-(2-ethylsulfonylamino-5-trifluoromethyl-3-pyridyl)cyclohexanecarboxamide]", "values": [{"measurement": "Inhibitory effect on phospholipase A2", "setting": "[3]", "value": "has an inhibitory effect on phospholipase A2"}]}
{"compound": "O=C1O[C@H]([C@@H](O)CO)C(O)=C1O", "note": "[VC, L-ascorbic acid]", "values": [{"measurement": "Inhibition of decomposition of compound 1 / production of D1 by added antioxidant", "setting": "[2]", "value": "remarkably inhibited the production of D1"}, {"measurement": "Residual rate of the compound 1 over time with VC added", "setting": "[4]; 60° C. (FIG. 7A)", "value": "increased depending on the concentration of VC added"}, {"measurement": "Content of D1 over time with VC added", "setting": "[4]; 60° C. (FIG. 7B)", "value": "decreased depending on the concentration of VC added"}]}
{"compound": "CCS(=O)(=O)Nc1ncc(C(F)(F)F)cc1NC(=O)C1CCCCC1", "note": "[Compound 1, N-(2-ethylsulfonylamino-5-trifluoromethyl-3-pyridyl)cyclohexanecarboxamide-monosodium salt-monohydrate]", "values": [{"measurement": "Content of D3 after the forced decomposition test", "setting": "[5]; Acid: 0.1N HCl, 60° C., 48 h", "value": 16.18, "unit": "% by area"}, {"measurement": "Other peaks (other than D1 and D3), maximum", "setting": "[5]; Acid: 0.1N HCl, 60° C., 48 h", "value": "≤ 1.36", "unit": "% by area"}, {"measurement": "Residual rate of the compound 1 after the forced decomposition test", "setting": "[5]; Acid: 0.1N HCl, 60° C., 48 h", "value": 77.1, "unit": "% by mass"}, {"measurement": "Content of D1 after the forced decomposition test", "setting": "[5]; Acid: 0.1N HCl, 60° C., 48 h, —: Undetected", "value": "below the detection limit"}, {"measurement": "Content of D1 after the forced decomposition test", "setting": "[5]; Base: 0.1N NaOH, 60° C., 48 h", "value": 17.62, "unit": "% by area"}, {"measurement": "Content of D3 after the forced decomposition test", "setting": "[5]; Base: 0.1N NaOH, 60° C., 48 h", "value": 0.50, "unit": "% by area"}, {"measurement": "Other peaks (other than D1 and D3)", "setting": "[5]; Base: 0.1N NaOH, 60° C., 48 h", "value": 0.11, "unit": "% by area"}, {"measurement": "Residual rate of the compound 1 after the forced decomposition test", "setting": "[5]; Base: 0.1N NaOH, 60° C., 48 h", "value": 77.3, "unit": "% by mass"}, {"measurement": "Residual rate of the compound 1 after the forced decomposition test", "setting": "[5]; Heat: 250 μM aqueous solution, 60° C., 48 h", "value": 88.7, "unit": "% by mass"}, {"measurement": "Other peaks (other than D1 and D3)", "setting": "[5]; Heat: 60° C., 48 h", "value": "No other peaks were detected"}, {"measurement": "Content of D1 after the forced decomposition test", "setting": "[5]; [7]", "value": 8.08, "unit": "% by area"}, {"measurement": "Content of D3 after the forced decomposition test", "setting": "[5]; [7]", "value": "below the detection limit"}, {"measurement": "Residual rate of the compound 1 after the forced decomposition test", "setting": "[5]; Light: pseudo-sunlight 250 W/m^2, room temperature, 2 h", "value": 97.4, "unit": "% by mass"}, {"measurement": "Content of D1 after the forced decomposition test", "setting": "[5]; [8]", "value": 0.30, "unit": "% by area"}, {"measurement": "Residual rate of the compound 1 after the forced decomposition test", "setting": "[5]; [8]", "value": 75.9, "unit": "% by mass"}, {"measurement": "Content of D3 after the forced decomposition test", "setting": "[5]; Oxidation: 3.0% H2O2, room temperature, 48 h, —: Undetected", "value": "below the detection limit"}, {"measurement": "Peaks other than D1 and D3, maximum", "setting": "[5]; Oxidation: hydrogen peroxide 3 v/v %, ordinary temperature", "value": "≤ 1.79", "unit": "% by area"}, {"measurement": "Photostability of the aqueous solution (decomposition products after irradiation)", "setting": "[5]; pseudo-sunlight 250 W/m^2, 2 hours", "value": "No decomposition product was detected; also recorded: photostable"}, {"measurement": "Concentration in plasma at 12 hours after administration", "setting": "[6]", "value": "below the detection limit"}]}
